Here are results for eight compounds from ChEMBL document CHEMBL1201862, “PubChem BioAssay data set” (2004).

The structures appear in SMILES notation. Where “and” joins values, the source holds several entries; their conditions need not be identical. Identical values can stand only once. Calls of active or inactive are those of the source. Some results are limits rather than exact numbers.

Assay [1] deals with Vero. Description: mammalian cell viability reduction – secondary assay, cytotoxicity control for West Nile virus antiviral project, dose response (AID 1650). In kind it is functional. The following applies: Chlorocebus sabaeus.
The nature of assay [2]: reduced cellular PGC1a acetyl-lysine signal – cell-based, cherry-picked samples, dose response (AID 720514).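 Further: potency may reflect raised or lowered acetylation signal.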 In kind it is functional.
The nature of assay [3]: viability of uninfected HEp-2 cells – cell-based, HTS, cytotoxicity control for RSV inhibitor project, dose response (AID 2410). In kind it is functional. The following applies: human respiratory syncytial virus.
The nature of assay [4]: HPDE-C7 pancreatic duct cell viability loss – fluorescence, HTS (AID 430). The format is functional, cell-based. The following applies: Homo sapiens.
Assay [5] is described as follows: viability loss of HPDE-C7K cells – cell-based, fluorescence, HTS, primary screen (AID 431). The following applies: Homo sapiens. In kind it is functional.
In assay [6] the test system is Vero. The assay can be described thus: inhibition of WNV-induced cytopathic effect – cell-based, CPE readout (AID 1621). The following applies: Chlorocebus sabaeus. In kind it is functional. (Cytopathic effects are the visible damage that an infection or toxin causes in cultured cells.)
In assay [7] the test system is Vero. The assay can be described thus: cells. In kind it is functional. The following applies: Chlorocebus sabaeus.
Assay [8] has as its target T1, Tyrosine-protein phosphatase non-receptor type 7 (Homo sapiens, UniProt P35236).
T1 sequence (P35236 whole entry): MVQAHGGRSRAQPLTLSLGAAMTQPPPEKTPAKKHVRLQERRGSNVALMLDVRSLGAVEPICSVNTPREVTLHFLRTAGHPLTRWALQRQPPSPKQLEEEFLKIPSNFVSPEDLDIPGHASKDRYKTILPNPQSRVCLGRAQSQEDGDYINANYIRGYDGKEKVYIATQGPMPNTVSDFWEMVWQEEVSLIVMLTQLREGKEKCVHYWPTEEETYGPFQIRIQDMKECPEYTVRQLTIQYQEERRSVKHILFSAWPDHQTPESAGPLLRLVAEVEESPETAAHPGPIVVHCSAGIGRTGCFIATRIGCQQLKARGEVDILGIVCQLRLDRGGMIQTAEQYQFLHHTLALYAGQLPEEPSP
Description: HePTP tyrosine phosphatase activity blockers – biochemical, absorbance, leukemia target, primary screen (AID 521). The format is functional.

Assay [9] concerns the target T2, Bcl-2-related protein A1 (Mus musculus, UniProt Q07440).
T2 sequence (Q07440 whole entry): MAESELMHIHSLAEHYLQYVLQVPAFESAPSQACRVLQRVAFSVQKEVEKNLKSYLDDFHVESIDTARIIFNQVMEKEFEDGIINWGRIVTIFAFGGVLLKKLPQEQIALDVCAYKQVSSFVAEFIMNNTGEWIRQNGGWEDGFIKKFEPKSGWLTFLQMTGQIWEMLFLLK
The assay can be described thus: displacement of Bid BH3 peptide from Bfl-1 – biochemical, fluorescence polarization, FITC-Bid, mouse, primary screen (AID 432). Background: In fluorescence polarisation assays a small probe gives low polarisation when free and higher when bound to something large.

The target of assay [10] is Glyceraldehyde-3-phosphate dehydrogenase (Homo sapiens, UniProt P04406).
Assay [11] has as its target T2, Bcl-2-related protein A1. Description: small-molecule antagonists of Bfl-1/BH3 interaction – biochemical, TR-FRET, mouse Bfl-1, confirmation (AID 621).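 Further: TR-FRET binding of GST-Bfl-1 to FITC-labelled Bid peptide via terbium antibody.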 On the technique in general: TR-FRET usually uses a lanthanide donor and a delayed reading to cut background.
For assay [12], the target named is T2, Bcl-2-related protein A1. Description: Bfl-1 binding inhibitors, SAR follow-up, biochemical, fluorescence polarization (AID 1070).
The target of assay [13] is Voltage-gated inwardly rectifying potassium channel KCNH2 (Homo sapiens, UniProt Q12809). The assay can be described thus: concentration-dependent hERG rescue from blockers – cell-based, thallium flux, dose response (AID 2121). In kind it is ADME.
The target of assay [14] is T3, Sphingosine 1-phosphate receptor 2 (Homo sapiens, UniProt O95136). The assay can be described thus: Dose Response Cell Based Assay for Agonists of the S1P2 Receptor of Purchased Analogues. [Related pubchem assays: 729, 843, 854, 736 ]. In kind it is functional.
For assay [15], the target named is T3, Sphingosine 1-phosphate receptor 2. Description: Dose Response Cell Based Assay for Antagonists of the S1P2 Receptor. [Related pubchem assays: 856, 736 ]. In kind it is functional.
In another assay the target is T4, Protein skinhead-1 (Caenorhabditis elegans, UniProt P34707).
T4 sequence (P34707 whole entry): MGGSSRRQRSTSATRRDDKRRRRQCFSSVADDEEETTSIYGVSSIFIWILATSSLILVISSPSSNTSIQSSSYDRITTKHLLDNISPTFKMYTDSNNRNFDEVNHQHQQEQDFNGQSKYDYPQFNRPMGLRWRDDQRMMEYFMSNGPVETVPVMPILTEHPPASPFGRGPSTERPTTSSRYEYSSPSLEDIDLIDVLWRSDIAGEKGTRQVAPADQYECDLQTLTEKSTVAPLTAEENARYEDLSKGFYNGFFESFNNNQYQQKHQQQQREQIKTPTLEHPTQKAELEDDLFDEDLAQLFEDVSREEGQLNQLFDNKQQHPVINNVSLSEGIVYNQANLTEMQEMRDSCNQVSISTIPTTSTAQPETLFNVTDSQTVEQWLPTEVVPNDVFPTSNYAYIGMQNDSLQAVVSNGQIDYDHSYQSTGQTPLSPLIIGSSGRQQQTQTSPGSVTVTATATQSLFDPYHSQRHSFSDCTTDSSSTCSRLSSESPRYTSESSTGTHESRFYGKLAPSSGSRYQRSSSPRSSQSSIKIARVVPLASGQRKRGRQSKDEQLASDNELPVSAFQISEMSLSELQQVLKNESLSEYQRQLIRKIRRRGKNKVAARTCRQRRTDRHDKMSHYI
In kind it is functional.

A further assay deals with Cytochrome P450 2C19 (Homo sapiens, UniProt P33261). The assay can be described thus: qHTS Assay for Inhibitors and Substrates of Cytochrome P450 2C19. [Related pubchem assays: 410 ]. The format is ADME. The following applies: read-out: Potency.
Another assay has as its target Cytochrome P450 2D6 (Homo sapiens, UniProt P10635). The assay can be described thus: qHTS Assay for Inhibitors and Substrates of Cytochrome P450 2D6. [Related pubchem assays: 410 ]. In kind it is ADME. The following applies: read-out: Potency.
The next assay has as its target Cytochrome P450 3A4 (Homo sapiens, UniProt P08684). The following applies: Potency.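 Further: confirmatory qHTS run detecting inhibitors and substrates of CYP3A4.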

T3 sequence (O95136 whole entry): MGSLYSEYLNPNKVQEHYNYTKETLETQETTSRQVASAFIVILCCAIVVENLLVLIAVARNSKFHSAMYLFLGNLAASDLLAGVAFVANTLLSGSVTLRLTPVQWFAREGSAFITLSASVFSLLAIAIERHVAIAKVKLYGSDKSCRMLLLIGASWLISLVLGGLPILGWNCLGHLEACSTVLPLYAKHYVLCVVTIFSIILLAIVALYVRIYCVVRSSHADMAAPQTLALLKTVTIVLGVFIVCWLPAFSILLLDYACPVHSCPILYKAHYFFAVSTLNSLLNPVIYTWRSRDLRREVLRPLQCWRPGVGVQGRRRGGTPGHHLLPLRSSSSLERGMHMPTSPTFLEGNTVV
Chain of Cytochrome P450 3A4 (P08684 whole entry): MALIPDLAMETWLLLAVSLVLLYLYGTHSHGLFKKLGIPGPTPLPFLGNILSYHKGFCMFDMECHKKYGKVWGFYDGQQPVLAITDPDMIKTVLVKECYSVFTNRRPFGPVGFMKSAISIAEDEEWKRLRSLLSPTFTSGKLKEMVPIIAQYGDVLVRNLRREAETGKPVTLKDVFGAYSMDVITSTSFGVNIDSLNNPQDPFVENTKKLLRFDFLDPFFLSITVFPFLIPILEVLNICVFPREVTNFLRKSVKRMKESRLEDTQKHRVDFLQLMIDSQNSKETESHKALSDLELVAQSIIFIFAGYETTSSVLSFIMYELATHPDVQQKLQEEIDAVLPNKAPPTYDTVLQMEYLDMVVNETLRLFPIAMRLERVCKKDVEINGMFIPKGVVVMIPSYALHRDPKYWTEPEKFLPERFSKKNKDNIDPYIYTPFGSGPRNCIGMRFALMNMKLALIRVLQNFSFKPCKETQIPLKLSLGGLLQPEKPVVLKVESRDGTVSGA
Chain of Cytochrome P450 2C19 (P33261 whole entry): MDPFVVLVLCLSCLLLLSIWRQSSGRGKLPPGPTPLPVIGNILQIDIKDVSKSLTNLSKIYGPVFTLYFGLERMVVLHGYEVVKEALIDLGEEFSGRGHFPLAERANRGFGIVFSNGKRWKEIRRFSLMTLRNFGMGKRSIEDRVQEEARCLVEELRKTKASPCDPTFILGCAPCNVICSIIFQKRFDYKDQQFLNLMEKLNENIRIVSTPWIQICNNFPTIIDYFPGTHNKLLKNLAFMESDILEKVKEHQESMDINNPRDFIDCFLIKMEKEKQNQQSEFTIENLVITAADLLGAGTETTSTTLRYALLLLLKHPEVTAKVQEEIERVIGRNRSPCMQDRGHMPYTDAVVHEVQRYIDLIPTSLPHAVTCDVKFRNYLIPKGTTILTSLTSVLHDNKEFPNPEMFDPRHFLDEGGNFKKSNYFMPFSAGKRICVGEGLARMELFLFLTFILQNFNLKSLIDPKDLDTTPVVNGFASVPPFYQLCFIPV
Chain of Voltage-gated inwardly rectifying potassium channel KCNH2 (Q12809 whole entry): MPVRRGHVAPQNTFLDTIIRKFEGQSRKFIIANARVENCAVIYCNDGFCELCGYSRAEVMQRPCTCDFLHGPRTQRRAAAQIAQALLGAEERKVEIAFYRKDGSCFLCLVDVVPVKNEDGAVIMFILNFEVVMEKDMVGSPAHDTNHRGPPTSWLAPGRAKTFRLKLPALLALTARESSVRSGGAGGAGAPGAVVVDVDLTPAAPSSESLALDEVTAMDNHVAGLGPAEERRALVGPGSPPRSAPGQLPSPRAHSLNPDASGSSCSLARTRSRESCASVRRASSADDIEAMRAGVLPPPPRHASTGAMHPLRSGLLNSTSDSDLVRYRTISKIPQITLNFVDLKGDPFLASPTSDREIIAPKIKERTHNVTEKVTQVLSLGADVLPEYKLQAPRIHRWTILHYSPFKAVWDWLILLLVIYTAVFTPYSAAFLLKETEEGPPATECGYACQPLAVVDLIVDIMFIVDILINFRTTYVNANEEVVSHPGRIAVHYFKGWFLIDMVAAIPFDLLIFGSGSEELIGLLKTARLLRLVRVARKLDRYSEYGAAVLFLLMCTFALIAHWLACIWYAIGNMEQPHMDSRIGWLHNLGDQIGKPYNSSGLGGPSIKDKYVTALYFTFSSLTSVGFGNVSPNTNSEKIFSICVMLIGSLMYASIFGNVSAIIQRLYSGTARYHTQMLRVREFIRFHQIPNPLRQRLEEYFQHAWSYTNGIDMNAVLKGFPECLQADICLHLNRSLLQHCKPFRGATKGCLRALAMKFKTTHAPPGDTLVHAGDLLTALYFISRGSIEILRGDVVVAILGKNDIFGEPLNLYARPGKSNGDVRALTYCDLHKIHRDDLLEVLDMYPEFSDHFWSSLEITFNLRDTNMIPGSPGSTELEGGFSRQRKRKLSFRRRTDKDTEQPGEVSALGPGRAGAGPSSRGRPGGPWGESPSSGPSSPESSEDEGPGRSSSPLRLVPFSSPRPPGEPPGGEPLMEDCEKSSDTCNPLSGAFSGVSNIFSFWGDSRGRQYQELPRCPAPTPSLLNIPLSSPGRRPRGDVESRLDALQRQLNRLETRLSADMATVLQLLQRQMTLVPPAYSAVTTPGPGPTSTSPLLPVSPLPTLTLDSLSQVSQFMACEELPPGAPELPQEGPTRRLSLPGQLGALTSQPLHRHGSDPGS
Chain of Glyceraldehyde-3-phosphate dehydrogenase (P04406 whole entry): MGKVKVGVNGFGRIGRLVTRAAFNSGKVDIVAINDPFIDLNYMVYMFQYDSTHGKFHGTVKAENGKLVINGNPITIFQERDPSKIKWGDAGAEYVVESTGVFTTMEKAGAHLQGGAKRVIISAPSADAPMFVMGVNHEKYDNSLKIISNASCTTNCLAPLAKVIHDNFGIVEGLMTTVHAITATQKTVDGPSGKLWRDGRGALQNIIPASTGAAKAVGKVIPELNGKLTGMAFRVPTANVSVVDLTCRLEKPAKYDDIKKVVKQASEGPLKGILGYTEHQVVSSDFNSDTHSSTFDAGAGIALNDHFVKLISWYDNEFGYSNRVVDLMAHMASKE
Chain of Cytochrome P450 2D6 (P10635 whole entry): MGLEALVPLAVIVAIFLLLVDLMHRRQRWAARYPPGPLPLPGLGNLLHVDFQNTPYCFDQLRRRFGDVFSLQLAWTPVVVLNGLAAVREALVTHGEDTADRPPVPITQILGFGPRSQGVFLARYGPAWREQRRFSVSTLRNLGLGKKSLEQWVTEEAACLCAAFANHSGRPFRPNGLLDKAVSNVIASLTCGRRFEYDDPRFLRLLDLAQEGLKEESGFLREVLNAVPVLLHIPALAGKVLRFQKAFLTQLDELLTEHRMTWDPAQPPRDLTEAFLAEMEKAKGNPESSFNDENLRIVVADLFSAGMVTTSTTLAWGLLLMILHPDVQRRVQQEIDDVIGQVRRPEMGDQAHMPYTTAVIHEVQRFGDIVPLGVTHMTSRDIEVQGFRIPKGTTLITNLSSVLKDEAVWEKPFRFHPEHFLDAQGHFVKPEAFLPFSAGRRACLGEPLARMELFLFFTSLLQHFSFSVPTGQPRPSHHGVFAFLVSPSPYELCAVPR

As usually defined, the CC50 is the concentration that lowers cell viability or growth by half. Regarding `CCOC(=O)C(CC)(CC)C(=O)/C=C/c1ccc(Br)cc1`, the CC50 in the assay with Vero [1] was 40.6 µM (active). In [2], the AC50 was 20.6 µM (active).

By EC50 is commonly meant the concentration at which the effect is half-maximal. For `Cc1oc(C)c2c(=O)ccc3c(c12)OC(N)=C(C#N)C3c1ccc(F)cc1` (centres undefined), the CC50 in [3] was 21.6 µM (active). In addition, the EC50 was 10.3 µM (active) in assay [4] and 9.61 µM (active) in assay [5].

A word on the IC50: it is the concentration that gives 50% inhibition. For `CCCN1CCN(CCCNC(=O)c2cc3c(s2)-c2ccccc2OC3)CC1`, in the assay with Vero [6], the concentration for half-maximal inhibition (IC50) is 20 µM (active). The CC50 in the assay with Vero [7] was > 25 µM (active).

In the case of `COc1ccc2nc(O)c(-c3noc(-c4ccc(F)cc4)n3)cc2c1`, the IC50 in [8] is 2.18 µM (active); on Bcl-2-related protein A1 [9] it was 6.15 µM (active); in assay [10], > 100 µM (not active); on Bcl-2-related protein A1 [11] it was 4.45 µM (active) and 3.6 µM (active); at Bcl-2-related protein A1 [12], 3.85 µM (active).

As for `CCCn1c(SCC(N)=O)nc2c(c1=O)C1(CCCC1)Cc1ccccc1-2`, in assay [13], the EC50 is 4.67 µM (active).

Take `Cc1cc(C(=O)CN2C(=O)NC3(CCc4ccccc43)C2=O)c(C)n1Cc1ccccc1` (centres undefined): in assay [14], the EC50 is > 30 µM (not active).

Take `Cc1ccc(NC2=Nc3ccccc3N3C2=Nc2c(c(C)nn2-c2ccccc2)C3c2ccc(O)c(O)c2)cc1` (centres undefined): the IC50 in [15] was 4.5 µM (active); on Protein skinhead-1 it was > 100 µM (inactive).

Turning to `CCCCCCC#CC1C=CC(OC(C)=O)C(COC(C)=O)O1` (centres undefined), the AC50 on Cytochrome P450 2C19 was 3.98 µM (inconclusive); on Cytochrome P450 2D6, 7.94 µM (inconclusive); on Cytochrome P450 3A4, 3.98 µM (inconclusive).
